In ChEMBL document CHEMBL4118227, “Hexahydrobenzophenanthridine alkaloids from Corydalis bungeana Turcz. and their anti-inflammatory activity” (Bioorg Med Chem Lett, 2018):

test system: RAW264.7; assay: Antiinflammatory activity against mouse RAW264.7 cells assessed as inhibition of LPS induced nitric oxide production preincubated for 2 hrs followed by LPS challenge measured after 24 hrs by Griess reagent based assay; type: functional, cell-based

Row | SMILES | IC50 [nM]
1 | CC(=O)O[C@H]1Cc2cc3c(cc2[C@H]2[C@@]1(C)c1ccc4c(c1C[N@@+]2(C)[O-])OCO4)OCO3 | 33800
2 | CC(=O)O[C@H]1Cc2cc3c(cc2[C@H]2N(C)Cc4c(ccc5c4OCO5)[C@@]12C)OCO3 | 23100
3 | CC(=O)O[C@H]1Cc2cc3c(cc2[C@@H]2N(C)Cc4c(ccc5c4OCO5)[C@@]12C)OCO3 | 1000
4 | CN(C)c1ccc(O)c2c1C[C@H]1C[C@H]3[C@H](N(C)C)C(O)=C(C(N)=O)C(=O)[C@@]3(O)C(O)=C1C2=O [MINOCYCLINE] | 31300

Further lines, results first:

Row | IC50 [nM] | SMILES
5 | 2030 | COC(=O)C[C@H]1c2c(ccc3c2OCO3)[C@@]2(C)[C@@H](OC(C)=O)Cc3cc4c(cc3[C@H]2N1C)OCO4
6 | 2510 | CN1Cc2c(ccc3c2OCO3)[C@@]2(C)[C@@H](O)Cc3cc4c(cc3[C@@H]12)OCO4
7 | 2190 | COC(=O)C[C@H]1c2c(ccc3c2OCO3)[C@@]2(C)[C@@H](OC(C)=O)Cc3cc4c(cc3[C@@H]2N1C)OCO4
8 | 2790 | C[C@@]12c3ccc4c(c3C[N@@+](C)([O-])[C@H]1c1cc3c(cc1C[C@@H]2O)OCO3)OCO4
9 | 2260 | CC(=O)O[C@H]1Cc2cc3c(cc2[C@@H]2[C@@]1(C)c1ccc4c(c1C[N@@+]2(C)[O-])OCO4)OCO3
10 | 1880 | COc1cc2c(cc1O)C1Cc3ccc4c(c3CN1CC2)OCO4 (stereo not given) [CHEILANTHIFOLINE]
